Assay results from ChEMBL document CHEMBL1201862, “PubChem BioAssay data set” (2004).
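These data come from cells grown in 96-well plates and exposed to compound for 48 hours at five concentrations. Here, GI50 denotes the concentration required for 50% inhibition of growth.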 Calls of active or inactive are those of the source. No stated cut-off is given here; in the data, active = GI50 up to about 1.1 µM and inactive = higher.

Experiments:
Experiment in all cases: NCI tumour cell line growth inhibition, 48 h
SK-MEL-5 = tested on: SK-MEL-5
SNB-19 = tested on: SNB-19
CAKI-1 = tested on: CAKI-1
HOP-62 = tested on: HOP-62
RPMI-8226 = tested on: RPMI-8226
MDA-MB-435 = tested on: MDA-MB-435
A549 = tested on: A549
UO-31 = tested on: UO-31
LOX IMVI = tested on: LOX IMVI
MDA-MB-231 = tested on: MDA-MB-231
NCI-H226 = tested on: NCI-H226
BT-549 = tested on: BT-549
OVCAR-5 = tested on: OVCAR-5
HCT-116 = tested on: HCT-116
OVCAR-4 = tested on: OVCAR-4
HCC 2998 = tested on: HCC 2998
SK-MEL-2 = tested on: SK-MEL-2
UACC-257 = tested on: UACC-257
NCI-H460 = tested on: NCI-H460
PC-3 = tested on: PC-3

Measured: GI50

CCCC(CC)c1c(O)c(O)c(C(CC)CCC)c(C(CC)CCC)c1C(CC)CCC (stereo not given)
inactive: SK-MEL-5 > 10 µM | SNB-19 > 10 µM | CAKI-1 > 10 µM | HOP-62 > 10 µM | RPMI-8226 > 10 µM | MDA-MB-435 > 10 µM | A549 > 10 µM | UO-31 > 10 µM | LOX IMVI > 10 µM | MDA-MB-231 > 10 µM | NCI-H226 > 10 µM | BT-549 > 10 µM | OVCAR-5 > 10 µM | HCT-116 > 10 µM | OVCAR-4 > 10 µM | HCC 2998 > 10 µM | SK-MEL-2 > 10 µM | UACC-257 > 10 µM | NCI-H460 > 10 µM | PC-3 > 10 µM

O=C1OC(c2ccccc2)N/C1=C\c1ccc2c(c1)OCO2 (stereo not given)
inactive: SK-MEL-5 > 55.8 µM | SNB-19 > 100 µM | CAKI-1 > 100 µM | HOP-62 > 56.8 µM | RPMI-8226 25.2 µM | MDA-MB-435 > 100 µM | A549 > 100 µM | UO-31 > 100 µM | LOX IMVI 53.3 µM | MDA-MB-231 > 100 µM | NCI-H226 34 µM | BT-549 > 100 µM | OVCAR-5 > 100 µM | HCT-116 > 100 µM | OVCAR-4 36.7 µM | HCC 2998 54.2 µM | SK-MEL-2 > 77.1 µM | UACC-257 > 100 µM | NCI-H460 > 100 µM | PC-3 > 100 µM

O=C(O)c1cc2ccccc2oc1=O [COUMARIN-3-CARBOXYLIC ACID]
inactive: SK-MEL-5 > 100 µM | SNB-19 > 100 µM | CAKI-1 > 100 µM | HOP-62 > 100 µM | RPMI-8226 > 100 µM | MDA-MB-435 > 100 µM | A549 > 100 µM | UO-31 > 100 µM | LOX IMVI > 100 µM | MDA-MB-231 > 100 µM | NCI-H226 > 100 µM | BT-549 > 100 µM | OVCAR-5 > 100 µM | HCT-116 > 100 µM | OVCAR-4 > 100 µM | HCC 2998 > 100 µM | SK-MEL-2 > 100 µM | UACC-257 > 100 µM | NCI-H460 > 100 µM | PC-3 > 100 µM

CC(=O)O[C@@H]1C=C(C)[C@H](CBr)O[C@@]2(C)CC[C@H](Br)C(C)(C)[C@H]12
inactive: SK-MEL-5 > 100 µM | SNB-19 > 100 µM | CAKI-1 > 100 µM | HOP-62 > 100 µM | RPMI-8226 > 100 µM | MDA-MB-435 > 100 µM | A549 > 100 µM | UO-31 > 100 µM | LOX IMVI > 100 µM | MDA-MB-231 > 100 µM | NCI-H226 > 100 µM | BT-549 > 100 µM | OVCAR-5 > 100 µM | HCT-116 > 100 µM | OVCAR-4 > 100 µM | HCC 2998 > 100 µM | SK-MEL-2 > 100 µM | UACC-257 > 100 µM | NCI-H460 > 100 µM | PC-3 > 100 µM

O=CC1C[C@@H](N2C(=O)O[C@@H](c3ccccc3)[C@H]2c2ccccc2)[C@@H]1COCc1ccccc1 (stereo not given in full)
inactive: SK-MEL-5 15.2 µM | SNB-19 19.9 µM | CAKI-1 36.2 µM | HOP-62 18 µM | RPMI-8226 17.9 µM | MDA-MB-435 18.2 µM | A549 29.9 µM | UO-31 15.2 µM | LOX IMVI 17.7 µM | MDA-MB-231 15.7 µM | NCI-H226 20.2 µM | BT-549 20.3 µM | OVCAR-5 22.4 µM | HCT-116 16.7 µM | OVCAR-4 28.6 µM | HCC 2998 15 µM | SK-MEL-2 16.4 µM | UACC-257 17.9 µM | NCI-H460 18.3 µM | PC-3 19.5 µM

CCOP(=O)(CN1CCNCCNCC1)OCC
inactive: SK-MEL-5 > 100 µM | SNB-19 > 100 µM | CAKI-1 > 100 µM | HOP-62 > 100 µM | RPMI-8226 > 100 µM | MDA-MB-435 > 100 µM | A549 > 100 µM | UO-31 > 100 µM | LOX IMVI > 100 µM | MDA-MB-231 > 100 µM | NCI-H226 > 100 µM | BT-549 > 100 µM | OVCAR-5 > 100 µM | HCT-116 > 100 µM | OVCAR-4 > 100 µM | HCC 2998 > 100 µM | SK-MEL-2 > 100 µM | UACC-257 > 100 µM | NCI-H460 > 100 µM | PC-3 > 100 µM

Cc1cc(S(=O)(=O)Nc2n[nH]c(-c3ccc(Cl)cn3)n2)c(S)cc1Cl
inactive: SK-MEL-5 44.4 µM | SNB-19 30.1 µM | CAKI-1 44 µM | HOP-62 76.6 µM | RPMI-8226 > 100 µM | MDA-MB-435 43.1 µM | A549 62.7 µM | UO-31 29.5 µM | LOX IMVI > 100 µM | MDA-MB-231 > 100 µM | NCI-H226 33.4 µM | BT-549 32.2 µM | OVCAR-5 > 100 µM | HCT-116 38.6 µM | OVCAR-4 53.8 µM | HCC 2998 57.5 µM | SK-MEL-2 47.5 µM | UACC-257 > 100 µM | NCI-H460 36.9 µM | PC-3 > 100 µM

CCCC(=O)n1[nH]c(=O)n(C(C)(C)C)c1=O
inactive: SK-MEL-5 > 100 µM | SNB-19 > 100 µM | CAKI-1 > 100 µM | HOP-62 > 100 µM | RPMI-8226 > 100 µM | MDA-MB-435 > 100 µM | A549 > 100 µM | UO-31 > 100 µM | LOX IMVI > 100 µM | MDA-MB-231 > 100 µM | NCI-H226 > 100 µM | BT-549 > 100 µM | OVCAR-5 > 100 µM | HCT-116 > 100 µM | OVCAR-4 > 100 µM | HCC 2998 > 100 µM | SK-MEL-2 > 100 µM | UACC-257 > 100 µM | NCI-H460 > 100 µM | PC-3 > 100 µM

CCCCCC1=CC(=O)C1(Cl)Cl
inactive: SK-MEL-5 9.48 µM | SNB-19 24.9 µM | CAKI-1 8.3 µM | HOP-62 21.4 µM | RPMI-8226 2.77 µM | MDA-MB-435 11.1 µM | A549 23.5 µM | UO-31 15.4 µM | LOX IMVI 6.52 µM | MDA-MB-231 9.93 µM | NCI-H226 15.3 µM | BT-549 17.9 µM | OVCAR-5 15.4 µM | HCT-116 11.9 µM | OVCAR-4 15.9 µM | HCC 2998 14.2 µM | SK-MEL-2 20.4 µM | UACC-257 12.2 µM | NCI-H460 19.6 µM | PC-3 14.5 µM
